Measured values: patent US10681909B2, “Herbicidal triazoles” (FMC Corporation, priority 2014, dated 2020)

Key:
barnyardgrass [1] = experiment: Test A preemergence; assay type: in vivo, Echinochloa crus-galli; details: 0 to 100 scale (0 no effect, 100 complete control)
In short: (§1)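 Pre- and postemergence spray tests in a loam soil–sand mixture: seeded soil received a directed spray, while established seedlings 2–10 cm high at the one- to two-leaf stage were treated over the top. Compounds were carried in non-phytotoxic solvent with surfactant.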

foxtail, giant = experiment: Test A preemergence; assay type: in vivo, Setaria faberii; details: 0 to 100 scale (0 no effect, 100 complete control)
In short: as §1

barnyardgrass [2] = experiment: Test A postemergence; assay type: in vivo, Echinochloa crus-galli; details: 0 to 100 scale (0 no effect, 100 complete control), approx. 10 d
In short: as §1

corn = experiment: Test A postemergence; assay type: in vivo, Zea mays; details: 0 to 100 scale (0 no effect, 100 complete control), approx. 10 d
In short: as §1

rice = experiment: Test B flooded paddy test; assay type: in vivo, Oryza sativa; details: 250 g ai/ha, applied to paddy water at 2-leaf stage, visual rating after 13 to 15 d, scale 0 (no effect) to 100 (complete control)
In short: (§2)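 Pots were flooded to 3 cm above the soil at treatment, and compounds were applied directly into the paddy water. That depth was held throughout. After 13 to 15 d in a greenhouse, plants were rated visually against untreated controls.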

ducksalad = experiment: Test B flooded paddy test; assay type: in vivo, Heteranthera limosa; details: 250 g ai/ha, applied to paddy water at 2-leaf stage, visual rating after 13 to 15 d, scale 0 (no effect) to 100 (complete control)
In short: as §2

crabgrass, large = experiment: Test C postemergence; assay type: in vivo, Digitaria sanguinalis
Text: (§3) Seeds of plant species selected from blackgrass (Alopecurus myosuroides), ryegrass, Italian (Italian ryegrass, Lolium multiflorum), wheat (winter wheat, Triticum aestivum), galium (catchweed bedstraw, Galium aparine), corn (Zea mays), crabgrass, large (large crabgrass, Digitaria sanguinalis), foxtail, giant, (giant foxtail, Setaria faberii), johnsongrass (Sorghum halepense), lambsquarters (Chenopodium album), morningglory (Ipomoea coccinea), nutsedge, yellow (yellow nutsedge, Cyperus esculentus), pigweed (Amaranthus retroflexus), ragweed (common ragweed, Ambrosia elatior), soybean (Glycine max), barnyardgrass (Echinochloa crus-galli), oilseed rape (Brassica napus), waterhemp (common waterhemp, Amaranthus rudis), and velvetleaf (Abutilon theophrasti) were planted into a blend of loam soil and sand and treated preemergence with test chemicals formulated in a non-phytotoxic solvent mixture which included a surfactant. At the same time, plants selected from these crop and weed species and also chickweed (common chickweed, Stellaria media), oat, wild (wild oat, Avena fatua), and kochia (Kochia scoparia), were planted in pots containing Sunshine Redi-Earth® planting medium comprising spaghnum peat moss, vermiculite, starter nutrients and dolomitic limestone and treated with postemergence applications of test chemicals formulated in the same manner. Plants ranged in height from 2 to 18 cm (1- to 4-leaf stage) for postemergence treatments. […] A dash (-) response means no test result.

johnsongrass = experiment: Test C postemergence; assay type: in vivo, Sorghum halepense
Text: as §3

morningglory = experiment: Test C postemergence; assay type: in vivo, Ipomoea coccinea
Text: as §3

pigweed = experiment: Test C postemergence; assay type: in vivo, Amaranthus retroflexus
Text: as §3

ragweed = experiment: Test C postemergence; assay type: in vivo, Ambrosia elatior
Text: as §3

velvetleaf = experiment: Test C postemergence; assay type: in vivo, Abutilon theophrasti
Text: as §3

kochia = experiment: Test C postemergence; assay type: in vivo, Kochia scoparia
Text: as §3

Structure (SMILES) | Plant response rating, Barnyardgrass (barnyardgrass [1]; 125 g ai/ha) | Plant response rating, Foxtail, Giant (foxtail, giant; 125 g ai/ha) | Plant response rating, Barnyardgrass (barnyardgrass [2]; 125 g ai/ha) | Plant response rating, Corn (corn; 125 g ai/ha) | Plant response rating, Rice, Flood (rice) | Plant response rating, Ducksalad, Flood (ducksalad) | Plant response rating (scale of 0 to 100 where 0 is no effect and 100 is complete control) (crabgrass, large; 31 g ai/ha) | Plant response rating (scale of 0 to 100 where 0 is no effect and 100 is complete control) (crabgrass, large; 62 g ai/ha) | Plant response rating (scale of 0 to 100 where 0 is no effect and 100 is complete control) (crabgrass, large; 125 g ai/ha) | Plant response rating (scale of 0 to 100 where 0 is no effect and 100 is complete control) (johnsongrass; 62 g ai/ha) | Plant response rating (scale of 0 to 100 where 0 is no effect and 100 is complete control) (johnsongrass; 125 g ai/ha) | Plant response rating (scale of 0 to 100 where 0 is no effect and 100 is complete control) (morningglory; 31 g ai/ha) | Plant response rating (scale of 0 to 100 where 0 is no effect and 100 is complete control) (morningglory; 62 g ai/ha) | Plant response rating (scale of 0 to 100 where 0 is no effect and 100 is complete control) (morningglory; 125 g ai/ha) | Plant response rating (scale of 0 to 100 where 0 is no effect and 100 is complete control) (pigweed; 31 g ai/ha) | Plant response rating (scale of 0 to 100 where 0 is no effect and 100 is complete control) (pigweed; 62 g ai/ha) | Plant response rating (scale of 0 to 100 where 0 is no effect and 100 is complete control) (pigweed; 125 g ai/ha) | Plant response rating (scale of 0 to 100 where 0 is no effect and 100 is complete control) (ragweed; 31 g ai/ha) | Plant response rating (scale of 0 to 100 where 0 is no effect and 100 is complete control) (ragweed; 62 g ai/ha) | Plant response rating (scale of 0 to 100 where 0 is no effect and 100 is complete control) (ragweed; 125 g ai/ha) | other results
COc1nc(-c2ccc(Cl)cc2)nn1Cc1ccnc(C(F)(F)F)c1 [Compound 28] | 30 | 100 | 30 | 10 | 30 | 90 | 10 | 10 | 10 | 5 | 10 | 70 | 60 | 65 | 95 | 95 | 98 | 25 | 25 | 75 | Plant response rating, Barnyardgrass (barnyardgrass [1]; 500 g ai/ha, approx. 10 d): 90; Plant response rating, Foxtail, Giant (foxtail, giant; 500 g ai/ha, approx. 10 d): 100; Plant response rating, Barnyardgrass (barnyardgrass [2]; 500 g ai/ha): 80; Plant response rating, Corn (corn; 500 g ai/ha): 40; Plant response rating (scale of 0 to 100 where 0 is no effect and 100 is complete control) (crabgrass, large; 250 g ai/ha): 30; Plant response rating (scale of 0 to 100 where 0 is no effect and 100 is complete control) (johnsongrass; 250 g ai/ha): 85; Plant response rating (scale of 0 to 100 where 0 is no effect and 100 is complete control) (morningglory; 250 g ai/ha): 100; Plant response rating (scale of 0 to 100 where 0 is no effect and 100 is complete control) (pigweed; 250 g ai/ha): 100; Plant response rating (scale of 0 to 100 where 0 is no effect and 100 is complete control) (ragweed; 250 g ai/ha): 75; Plant response rating (scale of 0 to 100 where 0 is no effect and 100 is complete control) (velvetleaf; 31 g ai/ha): 60; Plant response rating (scale of 0 to 100 where 0 is no effect and 100 is complete control) (velvetleaf; 62 g ai/ha): 60; Plant response rating (scale of 0 to 100 where 0 is no effect and 100 is complete control) (velvetleaf; 125 g ai/ha): 65; Plant response rating (scale of 0 to 100 where 0 is no effect and 100 is complete control) (velvetleaf; 250 g ai/ha): 80; Plant response rating (scale of 0 to 100 where 0 is no effect and 100 is complete control) (kochia; 31 g ai/ha): 95; Plant response rating (scale of 0 to 100 where 0 is no effect and 100 is complete control) (kochia; 62 g ai/ha): 100; Plant response rating (scale of 0 to 100 where 0 is no effect and 100 is complete control) (kochia; 125 g ai/ha): 100; Plant response rating (scale of 0 to 100 where 0 is no effect and 100 is complete control) (kochia; 250 g ai/ha): 100
CCCOc1nc(-c2ccccc2)nn1Cc1ccnc(C(F)(F)F)c1 [Compound 33] | 50 | 90 | 20 | 20 | 0 | 30 | 5 | 10 | 10 | 5 | 10 | 55 | 80 | 85 | 95 | 90 | 98 | 35 | 35 | 40 | Plant response rating, Barnyardgrass (barnyardgrass [1]; 500 g ai/ha, approx. 10 d): 80; Plant response rating, Foxtail, Giant (foxtail, giant; 500 g ai/ha, approx. 10 d): 100; Plant response rating, Barnyardgrass (barnyardgrass [2]; 500 g ai/ha): 50; Plant response rating, Corn (corn; 500 g ai/ha): 30; Plant response rating (scale of 0 to 100 where 0 is no effect and 100 is complete control) (crabgrass, large; 250 g ai/ha): 15; Plant response rating (scale of 0 to 100 where 0 is no effect and 100 is complete control) (johnsongrass; 31 g ai/ha): 5; Plant response rating (scale of 0 to 100 where 0 is no effect and 100 is complete control) (johnsongrass; 250 g ai/ha): 15; Plant response rating (scale of 0 to 100 where 0 is no effect and 100 is complete control) (morningglory; 250 g ai/ha): 75; Plant response rating (scale of 0 to 100 where 0 is no effect and 100 is complete control) (pigweed; 250 g ai/ha): 98; Plant response rating (scale of 0 to 100 where 0 is no effect and 100 is complete control) (ragweed; 250 g ai/ha): 75; Plant response rating (scale of 0 to 100 where 0 is no effect and 100 is complete control) (velvetleaf; 31 g ai/ha): 15; Plant response rating (scale of 0 to 100 where 0 is no effect and 100 is complete control) (velvetleaf; 62 g ai/ha): 15; Plant response rating (scale of 0 to 100 where 0 is no effect and 100 is complete control) (velvetleaf; 125 g ai/ha): 10; Plant response rating (scale of 0 to 100 where 0 is no effect and 100 is complete control) (velvetleaf; 250 g ai/ha): 40; Plant response rating (scale of 0 to 100 where 0 is no effect and 100 is complete control) (kochia; 31 g ai/ha): 90; Plant response rating (scale of 0 to 100 where 0 is no effect and 100 is complete control) (kochia; 62 g ai/ha): 90; Plant response rating (scale of 0 to 100 where 0 is no effect and 100 is complete control) (kochia; 125 g ai/ha): 90; Plant response rating (scale of 0 to 100 where 0 is no effect and 100 is complete control) (kochia; 250 g ai/ha): 90
CCOc1nc(-c2ccc(Cl)cc2)nn1Cc1ccnc(C(F)(F)F)c1 [Compound 26] | 90 | 100 | 70 | 40 | 45 | 70 | 20 | 35 | 50 | 35 | 55 | 90 | 75 | 85 | 95 | 98 | 98 | 90 | 70 | 85 | Plant response rating, Barnyardgrass (barnyardgrass [1]; 31 g ai/ha): 60; Plant response rating, Foxtail, Giant (foxtail, giant; 31 g ai/ha): 100; Plant response rating, Barnyardgrass (barnyardgrass [2]; 31 g ai/ha): 40; Plant response rating, Corn (corn; 31 g ai/ha): 30; Plant response rating (scale of 0 to 100 where 0 is no effect and 100 is complete control) (crabgrass, large; 16 g ai/ha): 20; Plant response rating (scale of 0 to 100 where 0 is no effect and 100 is complete control) (johnsongrass; 16 g ai/ha): 25; Plant response rating (scale of 0 to 100 where 0 is no effect and 100 is complete control) (johnsongrass; 31 g ai/ha): 20; Plant response rating (scale of 0 to 100 where 0 is no effect and 100 is complete control) (morningglory; 16 g ai/ha): 90; Plant response rating (scale of 0 to 100 where 0 is no effect and 100 is complete control) (pigweed; 16 g ai/ha): 95; Plant response rating (scale of 0 to 100 where 0 is no effect and 100 is complete control) (ragweed; 16 g ai/ha): 85; Plant response rating (scale of 0 to 100 where 0 is no effect and 100 is complete control) (velvetleaf; 16 g ai/ha): 60; Plant response rating (scale of 0 to 100 where 0 is no effect and 100 is complete control) (velvetleaf; 31 g ai/ha): 60; Plant response rating (scale of 0 to 100 where 0 is no effect and 100 is complete control) (velvetleaf; 62 g ai/ha): 65; Plant response rating (scale of 0 to 100 where 0 is no effect and 100 is complete control) (velvetleaf; 125 g ai/ha): 70; Plant response rating (scale of 0 to 100 where 0 is no effect and 100 is complete control) (kochia; 16 g ai/ha): 85; Plant response rating (scale of 0 to 100 where 0 is no effect and 100 is complete control) (kochia; 31 g ai/ha): 90; Plant response rating (scale of 0 to 100 where 0 is no effect and 100 is complete control) (kochia; 62 g ai/ha): 90; Plant response rating (scale of 0 to 100 where 0 is no effect and 100 is complete control) (kochia; 125 g ai/ha): 90
